Test systems include Escherichia coli; Staphylococcus aureus; Bacillus subtilis; Candida albicans.
Holding throughout (assay): ≥ marks a high value that may be exact or a test limit, other limits are often not marked, values filed in µg/mL are converted to µM
Assay [1] deals with Escherichia coli ATCC 25922.
Assay [2] deals with Candida albicans ATCC 90028.
Assay [3] relates to Staphylococcus aureus ATCC 25923.
Assay [4] relates to Pseudomonas aeruginosa ATCC 27853.
For assay [5], the system named is Staphylococcus aureus ATCC 29213.
Assay [6] relates to Bacillus subtilis ATCC 6633.

Values after ≈ are worked out from the molar mass of the structure shown.

As usually defined, the MIC is the lowest concentration found to suppress growth. The low end stands for a more susceptible organism, the high end for a less susceptible organism. Take `CC[C@H](C)[C@H](NC(=O)[C@H](CCCCN)NC(=O)[C@H](CC(=O)O)NC(=O)[C@H](CC(C)C)NC(=O)[C@H](CC(C)C)NC(=O)CNC(=O)[C@@H](NC(=O)[C@H](C)NC(=O)[C@H](CC(C)C)NC(=O)[C@H](CC(N)=O)NC(=O)[C@H](CCCCN)NC(=O)[C@H](C)NC(=O)[C@@H](NC(=O)[C@H](CC(N)=O)NC(=O)[C@H](CCCCN)NC(=O)[C@@H](NC(=O)[C@@H](NC(=O)[C@H](CC(=O)O)NC(=O)[C@H](CC(C)C)NC(=O)[C@H](CC(C)C)NC(=O)CN)[C@@H](C)O)[C@@H](C)CC)[C@@H](C)O)C(C)C)C(=O)N[C@@H](CCCCN)C(=O)N[C@H]1CSSC[C@@H](C(=O)O)NC(=O)CNC(=O)[C@H]([C@@H](C)O)NC(=O)[C@H](CCSC)NC(=O)[C@H](CCCCN)NC1=O` [GLLDTIKNTAKNLAVGLLDKIKCKMTGC]: the MIC in assay [1] was 3 µM (≈ 8.88 µg/mL); in assay [2], no less than 150 µM.
`CC[C@H](C)[C@H](NC(=O)[C@H](CC(C)C)NC(=O)[C@H](C)NC(=O)[C@@H]1CCCN1C(=O)[C@H](CC(C)C)NC(=O)[C@@H](N)CC(C)C)C(=O)N[C@@H](CO)C(=O)N[C@@H](Cc1c[nH]c2ccccc12)C(=O)N[C@H](C(=O)N[C@@H](CCCCN)C(=O)N[C@@H](CCCN=C(N)N)C(=O)N[C@@H](CCCCN)C(=O)N[C@@H](CCCN=C(N)N)C(=O)N[C@@H](CCC(N)=O)C(=O)N[C@@H](CCC(N)=O)C(N)=O)[C@@H](C)CC` [LLPALISWIKRKRQQ]: the results for the MIC against Escherichia coli, with Staphylococcus aureus and against Bacillus subtilis were 38.3 µM (≈ 70.8 µg/mL), 0.595 µM (≈ 1.1 µg/mL) and 1.19 µM (≈ 2.2 µg/mL), respectively.
With `CC[C@H](C)[C@H](NC(=O)[C@@H](NC(=O)[C@H](CC(N)=O)NC(=O)[C@H](CC(C)C)NC(=O)[C@H](CC(C)C)NC(=O)CN)C(C)C)C(=O)N[C@@H](CCCCN)C(=O)N[C@@H](CC(=O)O)C(=O)N[C@H](C(=O)N[C@@H](C)C(=O)N[C@@H](CCC(N)=O)C(=O)N[C@@H](CC(N)=O)C(=O)N[C@@H](CC(C)C)C(=O)N[C@@H](Cc1ccccc1)C(=O)N[C@@H](C)C(=O)N[C@@H](C)C(=O)N[C@@H](C)C(=O)N[C@@H](CC(C)C)C(=O)N[C@@H](CCC(=O)O)C(=O)N[C@@H](CCCCN)C(=O)N[C@@H](CC(C)C)C(=O)N[C@@H](CCCCN)C(=O)N[C@H]1CSSC[C@@H](C(=O)N[C@@H](CC(N)=O)C(=O)O)NC(=O)[C@H](CCCCN)NC(=O)[C@H]([C@@H](C)O)NC(=O)[C@H](C(C)C)NC(=O)[C@H](CCCCN)NC1=O)[C@@H](C)O` [GLLNVIKDTAQNLFAAALEKLKCKVTKCN], the MIC in assay [1] is 80 µM (≈ 252 µg/mL); in [3] it was greater than 160 µM; in assay [2] it was no less than 160 µM.
Take `CC[C@H](C)[C@H](NC(=O)[C@H](CO)NC(=O)[C@H](C)NC(=O)[C@@H](NC(=O)[C@H](CCCCN)NC(=O)[C@H](CCCCN)NC(=O)[C@H](Cc1c[nH]c2ccccc12)NC(=O)[C@@H](NC(=O)[C@@H](N)CC(N)=O)[C@@H](C)CC)[C@@H](C)CC)C(=O)N[C@@H](C)C(=O)N[C@@H](CCCCN)C(=O)N[C@@H](CCC(=O)O)C(=O)N[C@H](C(=O)N[C@@H](CC(C)C)C(=O)N[C@@H](CCCCN)C(=O)N[C@@H](C)C(=O)N[C@@H](CC(C)C)C(N)=O)C(C)C` [NIWKKIASIAKEVLKAL]: the MIC in the assay with Escherichia coli amounted to 6.25 µM (≈ 12 µg/mL); against Bacillus subtilis it was 10 µM (≈ 19.2 µg/mL).
As to `CC[C@H](C)[C@H](NC(=O)[C@H](CCCN=C(N)N)NC(=O)[C@H](CCCCN)NC(=O)[C@@H](NC(=O)[C@@H](NC(=O)[C@H](CCCN=C(N)N)NC(=O)[C@@H](N)CCCCN)[C@@H](C)CC)C(C)C)C(=O)N[C@@H](CCCCN)C(=O)N[C@@H](C)C(=O)N[C@@H](Cc1ccccc1)C(=O)N[C@@H](CC(C)C)C(=O)N[C@@H](CCCN=C(N)N)C(=O)O` [KRIVKRIKAFLR], the MIC in assay [1], in assay [4], in [5] and in assay [2] was 1.25 µM (≈ 1.91 µg/mL) each time.
As for `CC[C@H](C)[C@H](NC(=O)[C@H](CCCN=C(N)N)NC(=O)[C@H](CCC(N)=O)NC(=O)[C@@H](NC(=O)[C@@H](NC(=O)[C@H](CCCN=C(N)N)NC(=O)[C@@H](N)CCCCN)[C@@H](C)CC)C(C)C)C(=O)N[C@@H](C)C(=O)N[C@@H](CC(=O)O)C(=O)N[C@@H](Cc1ccccc1)C(=O)N[C@@H](CC(C)C)C(=O)N[C@@H](CCCN=C(N)N)C(=O)O` [KRIVQRIADFLR], the MIC is 40 µM (≈ 60.6 µg/mL) in assay [1], 40 µM (≈ 60.6 µg/mL) in assay [4], 40 µM (≈ 60.6 µg/mL) in assay [5] and no less than 40 µM in [2].
As for `CC[C@H](C)[C@H](NC(=O)CNC(=O)[C@H](CO)NC(=O)[C@H](CC(C)C)NC(=O)[C@H](CC(C)C)NC(=O)CN)C(=O)N[C@@H](CC(C)C)C(=O)NCC(=O)N[C@@H](C)C(=O)NCC(=O)N[C@@H](CCCCN)C(=O)N[C@@H](Cc1cnc[nH]1)C(=O)N[C@H](C(=O)N[C@H](C(=O)N[C@H]1CSSC[C@@H](C(=O)O)NC(=O)[C@H](CC(C)C)NC(=O)CNC(=O)[C@H](CO)NC(=O)[C@H](CC(C)C)NC(=O)CNC1=O)[C@@H](C)CC)[C@@H](C)CC` [GLLSGILGAGKHIICGLSGLC], the MIC is greater than 50.4 µM against Escherichia coli, 0.555 µM (≈ 1.1 µg/mL) against Candida albicans, greater than 50.4 µM in the assay with Staphylococcus aureus and no less than 50.4 µM in the assay on Bacillus subtilis.
As to `CSCC[C@H](NC(=O)[C@H](Cc1ccccc1)NC(=O)CN)C(=O)N[C@@H](CO)C(=O)N[C@H](C(=O)N[C@@H](C)C(=O)N[C@@H](CO)C(=O)N[C@@H](CC(N)=O)C(=O)N[C@H](C(=O)N[C@@H](CC(C)C)C(=O)N[C@H](C(=O)N[C@@H](CC(N)=O)C(=O)N[C@H](C(=O)N[C@@H](C)C(=O)NCC(=O)N[C@H](C(=O)N[C@H](C(=O)N[C@@H](CCSC)C(=O)N[C@@H](CC(=O)O)C(=O)N[C@@H](CCCCN)C(=O)N[C@@H](CC(C)C)C(=O)N[C@@H](CCCCN)C(=O)N[C@H]1CSSC[C@@H](C(=O)O)NC(=O)[C@H](C)NC(=O)CNC(=O)[C@H]([C@@H](C)O)NC(=O)[C@H](Cc2ccccc2)NC(=O)[C@H](CCCCN)NC1=O)C(C)C)[C@@H](C)O)C(C)C)[C@@H](C)O)C(C)C)[C@@H](C)O` [GFMSTASNVLTNVAGTVMDKLKCKFTGAC], the MIC in [6] is no less than 100 µM.
Turning to `CC[C@H](C)[C@H](NC(=O)[C@H](CC(C)C)NC(=O)[C@@H]1CCCN1C(=O)[C@H](CC(C)C)NC(=O)[C@@H](N)Cc1ccccc1)C(=O)N[C@@H](C)C(=O)NCC(=O)N[C@H](C(=O)N[C@@H](C)C(=O)N[C@@H](C)C(=O)N[C@@H](CO)C(=O)N[C@H](C(=O)N[C@@H](CC(C)C)C(=O)N1CCC[C@H]1C(=O)N[C@@H](CCCCN)C(=O)N[C@H](C(=O)N[C@@H](Cc1ccccc1)C(=O)N[C@H]1CSSC[C@@H](C(=O)O)NC(=O)[C@H](CCCCN)NC(=O)[C@H](CCCCN)NC(=O)[C@H]([C@@H](C)O)NC(=O)[C@H]([C@@H](C)CC)NC(=O)[C@H](Cc2ccccc2)NC1=O)[C@@H](C)CC)[C@@H](C)CC)C(C)C` [FLPLIAGVAASILPKIFCFITKKC], the results for the MIC in assay [1], in [3] and in assay [2] were greater than 100 µM, 3 µM (≈ 7.78 µg/mL) and 3 µM (≈ 7.78 µg/mL), respectively.
With `CC[C@H](C)[C@H](NC(=O)[C@H](CCCN=C(N)N)NC(=O)[C@H](C)NC(=O)[C@@H](NC(=O)[C@@H](NC(=O)[C@H](CCCN=C(N)N)NC(=O)[C@@H](N)CCCCN)[C@@H](C)CC)C(C)C)C(=O)N[C@@H](CCCCN)C(=O)N[C@@H](C)C(=O)N[C@@H](C)C(=O)N[C@@H](CC(C)C)C(=O)N[C@@H](CCCN=C(N)N)C(=O)O` [KRIVARIKAALR], the MIC in assay [1] was determined as 2.5 µM (≈ 3.49 µg/mL); in assay [4], 2.5 µM (≈ 3.49 µg/mL); in assay [5], 5 µM (≈ 6.97 µg/mL); in assay [2], 10 µM (≈ 13.9 µg/mL).
For `CC[C@H](C)[C@H](N)C(=O)N[C@@H](CC(=O)O)C(=O)N[C@@H](Cc1c[nH]c2ccccc12)C(=O)N[C@@H](CCCCN)C(=O)N[C@@H](CCCCN)C(=O)N[C@H](C(=O)N[C@@H](Cc1ccccc1)C(=O)N[C@@H](CCC(=O)O)C(=O)N[C@@H](CCCCN)C(=O)N[C@H](C(=O)N[C@@H](CCCCN)C(=O)N[C@@H](CC(=O)O)C(=O)N[C@@H](CC(C)C)C(=O)N[C@H](C(N)=O)C(C)C)C(C)C)[C@@H](C)CC` [IDWKKIFEKVKDLV], the figures for the MIC against Escherichia coli and against Bacillus subtilis were 47.5 µM (≈ 83.6 µg/mL) and 17.5 µM (≈ 30.8 µg/mL), respectively.
In the case of `CC[C@H](C)[C@H](NC(=O)CNC(=O)[C@H](CO)NC(=O)[C@H](CC(C)C)NC(=O)[C@H](CC(C)C)NC(=O)CN)C(=O)N[C@@H](CC(C)C)C(=O)NCC(=O)N[C@@H](C)C(=O)NCC(=O)N[C@@H](CCCCN)C(=O)N[C@@H](Cc1cnc[nH]1)C(=O)N[C@H](C(=O)N[C@H](C(=O)N[C@@H](CS)C(=O)NCC(=O)N[C@@H](CC(C)C)C(=O)N[C@@H](CO)C(=O)NCC(=O)N1CCC[C@H]1C(=O)N[C@H]1CSSC[C@@H](C(=O)O)NC(=O)[C@H](CCCCN)NC(=O)[C@H](C)NC(=O)[C@H](CC(C)C)NC(=O)[C@H](Cc2cnc[nH]2)NC(=O)[C@H](Cc2ccc(O)cc2)NC(=O)[C@H](CCC(=O)O)NC(=O)[C@H](C(C)C)NC(=O)[C@H](CC(=O)O)NC(=O)[C@H](CO)NC(=O)[C@H](CO)NC(=O)[C@H](CCCCN)NC(=O)[C@H](CCCN=C(N)N)NC(=O)[C@H](CC(N)=O)NC(=O)[C@H](CC(C)C)NC(=O)[C@H](CO)NC(=O)[C@H](CCC(N)=O)NC1=O)C(C)C)[C@@H](C)CC` [GLLSGILGAGKHIVCGLSGPCQSLNRKSSDVEYHLAKC], the minimum inhibitory concentration (MIC) with Escherichia coli was found to be 1.6 µM (≈ 6.25 µg/mL); with Candida albicans, 0.797 µM (≈ 3.12 µg/mL); against Staphylococcus aureus it was 0.797 µM (≈ 3.12 µg/mL); in the assay on Bacillus subtilis, 3.19 µM (≈ 12.5 µg/mL).

(Values after DBAASP.)
